Source: US7332495B2 (priority 2002, dated 2008)
Structures can show the parent of a compound that is named as a salt. Where two headings read alike, the source gives them in different places.

Columns and labels:
[1] = system: rat; experiment: animal or person; conditions: for responders at 20 mg/kg: ip; for Increase (hot plate) (%): 20 mg/kg, Table 5 summary
Description: Using 55° C. hot plate pain threshold detector (available from Ninghai Baishi Electronic Medical Instrument Co., Zheijiang, China) the threshold change before and after administration of a pharmaceutical composition of the present invention is tested. […] hind paw was scrubbed with alcohol cotton ball before the experiment. The regular pain threshold was tested twice for each rat, the induced hind paw licking time being recorded as the pain threshold. Measurements were made at 20-30 minute intervals. Only rats with stable pain reaction were used in the pharmaceutical test.
(§1) Two species of animals (mice and rats) and four types of pain testing models (i.p. 0.7% acetic acid, s.c. 5% formalin, hot plate 55° C., focused radiant heat) were used.

[2] = system: Kunming mice; experiment: Sedation: spontaneous activities recorded with alternating current tube; format: in vivo; conditions: for inhibition in vivo at 20 mg/kg: Mus musculus, ip, i.p. 20 mg/Kg, spontaneous activities; for Sedation (writhing model): 20 mg/kg, Table 5 summary
Description: Kunming mice were used, with a male-female ratio of 50-50%. […] After 30 minutes, acetic acid (0.7%, […] i.p.) was injected and the number of writhes was observed during a 5-minute period after acetic acid administration. The inhibition ratio of the writhing threshold was calculated. The alternating current tube is used to record the spontaneous activities for measuring sedation.

[3] = system: rat; experiment: Rat tail flick model (focused radiant heat); format: in vivo; conditions: for change in vivo at 20 mg/kg: Rattus norvegicus, po, read-out: increase (%) of tail flick time; for change in vivo at 20 mg/kg / After (s) tail flick time: orally 20 mg/kg; for After (s) tail flick time: 30-45 minutes after administration; for Increase (tail flick) (%): 20 mg/kg, Table 5 summary
Description: A 8.75 mm-projecting lamp (12 v, 50 w) was used to give out focused radiant heat. The terminal 3 cm of the tail is exposed to the heat. The intensity of the focused radiant heat is regulated by a transformer to ensure that the time required to elicit a tail flick response is within 3-5 seconds. The rat's pain threshold is pre-tested for 2-3 times; and only animals with stable reactions were used in the pharmaceutical test. The test substance is taken orally 20 mg/kg. The number of rats whose increase in time for eliciting a tail flick response is by 100% or more at the peak of the drug action (30-45 minutes after administration) is used to calculate analgesic effect.
as §1

[4] = system: Kunming mice; experiment: Mice writhing model (acetic acid); format: in vivo; conditions: for inhibition in vivo at 20 mg/kg: ip, i.p. 20 mg/Kg, acetic acid 0.7% i.p. after 30 minutes, writhes in 5 minutes, read-out: Analgesia (inhibition ratio of writhing); for Writhing (K i): 20 mg/kg, Table 5 summary
Description: Kunming mice were used, with a male-female ratio of 50-50%. The test compound is administered i.p. (20 mg/Kg body weight) to the test groups, and physiological saline is administered P.O. (20 ml/Kg body weight) to the control group. After 30 minutes, acetic acid (0.7%, […] i.p.) was injected and the number of writhes was observed during a 5-minute period after acetic acid administration. The inhibition ratio of the writhing threshold was calculated. The alternating current tube is used to record the spontaneous activities for measuring sedation.
as §1

[5] = Summary of all three algogenic models; format: in vivo; conditions: in words
From the text: All the compounds mentioned above have profound for further value development.

[6] = system: rat; experiment: Rat tail flick model (focused radiant heat); format: in vivo; conditions: po, read-out: Analgesia ED50
[7] = Rattus norvegicus, read-out: Analgesic ratio (Increase by 100%)
[8] = Rattus norvegicus, read-out: Analgesic ratio (More than 60 seconds)

COc1ccc(CN2CCN(CC(=O)c3ccccc3)CC2)cc1 (as salt: hydrochloride) [IV-10, N^1-(4-methoxybenzyl)-N^4-phenacyl piperazine]
melting point: 222 to 224 °C

O=C(CN1CCN(Cc2cccnc2)CC1)c1ccccc1 (as salt: hydrochloride) [IV-11, N^1-(3-pyridylmethyl)-N^4-phenacyl piperazine]
melting point: 225 to 226 °C

CC(C(=O)c1ccccc1)N1CCN(Cc2ccc(N)cc2)CC1 (stereo not drawn) (as salt: hydrochloride) [IV-13, N^1-(4-aminobenzyl)-N^4-(1-benzoylethyl)piperazine]
melting point: 244 to 246 °C (dec.)

O=C(CN1CCN(CCc2ccccc2)CC1)c1ccccc1 (as salt: hydrochloride) [IV-14, N^1-phenethyl-N^4-phenacyl piperazine]
melting point: 238 to 240 °C

COc1ccc(OC)c(CN2CCN(CC(=O)c3ccccc3)CC2)c1 (as salt: hydrochloride) [IV-15, N^1-(2,5-dimethoxybenzyl)-N^4-phenacyl piperazine]
melting point: 238 to 240 °C

Nc1ccc(C(=O)CN2CCN(Cc3ccccc3)CC2)cc1 (as salt: hydrochloride) [IV-16, N^1-benzyl-N^4-(4-aminophenacyl)piperazine]
melting point: 286 to 288 °C

O=C(CCN1CCN(Cc2ccccc2)CC1)c1ccccc1 (as salt: hydrochloride) [IV-17, N^1-benzyl-N^4-(2-benzoylethyl)piperazine]
melting point: 230 to 232 °C

CC(=O)Nc1ccc(C(=O)CN2CCN(Cc3ccc([N+](=O)[O-])cc3)CC2)cc1 (as salt: hydrochloride) [IV-18, N^1-(4-nitrobenzyl)-N^4-[(4-acetamido)phenacyl]piperazine]
melting point: 228 to 230 °C

O=C(CN1CCN(Cc2ccc3c(c2)OCO3)CC1)c1ccccc1 (as salt: hydrochloride) [IV-19, N^1-(3,4-methylenedioxybenzyl)-N^4-phenacyl piperazine]
melting point: 240 to 241 °C

O=C(CN1CCN(Cc2ccc(F)cc2)CC1)c1ccc(Cl)cc1 (as salt: hydrochloride) [IV-20, N^1-(4-fluorobenzyl)-N^4-(4-chlorophenacyl)piperazine]
melting point: 246 to 248 °C (dec.)

CC(=O)Nc1ccc(CN2CCN(CC(=O)c3ccccc3)CC2)cc1 (as salt: hydrochloride) [IV-21, N^1-(4-acetamidobenzyl)-N^4-phenacyl piperazine]
melting point: 238 to 240 °C

COc1ccc(CN2CCN(C(C)C(=O)c3ccc4c(Cl)c(OC)ccc4c3)CC2)cc1 (stereo not drawn) (as salt: hydrochloride) [IV-31, N^1-(4-methoxybenzyl)-N^4-[1-(5-chloro-6-methoxy-2-naphthoyl)ethyl]piperazine]
melting point: 222 to 224 °C

CC(c1ccccc1)N1CCN(CC(=O)c2ccccc2)CC1 (stereo not drawn) (as salt: hydrochloride) [IV-37, N^1-(1-phenylethyl)-N^4-phenacyl piperazine]
melting point: 242 °C (dec.)

C[C@H](c1ccccc1)N1CCN(CC(=O)c2ccccc2)CC1 (as salt: hydrochloride) [IV-38, N^1—(R-1-phenylethyl)-N^4-phenacyl piperazine]
melting point: 230 to 232 °C

Cc1ccc(C(=O)CN2CCN(C(C)c3ccccc3)CC2)cc1 (stereo not drawn) (as salt: hydrochloride) [IV-40, N^1-(1-phenylethyl)-N^4-(4-methylphenacyl)piperazine]
melting point: 230 to 232 °C

Cc1ccc(C(=O)CN2CCN([C@H](C)c3ccccc3)CC2)cc1 (as salt: hydrochloride) [IV-41, N^1—(R-1-phenylethyl)-N^4-(4-methylphenacyl)piperazine]
melting point: 231 to 232 °C

COc1ccc2cc(C(=O)C(C)N3CCN(C(C)c4ccccc4)CC3)ccc2c1Cl (stereo not drawn) (as salt: hydrochloride) [IV-43, N^1-(1-phenylethyl)-N^4-[1-(5-chloro-6-methoxy-2-naphthoyl)ethyl]piperazine]
melting point: 231 to 232 °C

COc1ccc(CN2CCN(CC(=O)c3ccccc3)CC2)cc1 [IV-10, N^1-(4-methoxybenzyl)-N^4-phenacyl piperazine]
responders at 20 mg/kg [1, 7]: 90% | responders at 20 mg/kg [1, 8]: 70% | inhibition in vivo at 20 mg/kg [2]: 99% | change in vivo at 20 mg/kg [3]: 9.4% | After (s) tail flick time [3]: 8.81 s | inhibition in vivo at 20 mg/kg ([4]; Mus musculus): 100%

O=C(CN1CCN(CCc2ccccc2)CC1)c1ccccc1 [IV-14, N^1-phenethyl-N^4-phenacyl piperazine]
Analgesic effect on all three algogenic models [5]: powerful analgesic effects | Sedative effect on all three algogenic models [5]: rather significant sedative effect | Increase (hot plate) (%) [1]: 100% | responders at 20 mg/kg [1, 7]: 100% | responders at 20 mg/kg [1, 8]: 70% | Sedation (writhing model) [2]: 92 | inhibition in vivo at 20 mg/kg [2]: 92% | Increase (tail flick) (%) [3]: 37.9% | change in vivo at 20 mg/kg [3]: 37.9% | After (s) tail flick time [3]: 10.62 s | Writhing (K i) [4]: 94 | inhibition in vivo at 20 mg/kg ([4]; Mus musculus): 94%

O=C(CN1CCN(Cc2ccc3c(c2)OCO3)CC1)c1ccccc1 [IV-19, N^1-(3,4-methylenedioxybenzyl)-N^4-phenacyl piperazine]
responders at 20 mg/kg [1, 7]: 70% | responders at 20 mg/kg [1, 8]: 50% | inhibition in vivo at 20 mg/kg [2]: 93% | change in vivo at 20 mg/kg [3]: 6.7% | After (s) tail flick time [3]: 8.58 s | inhibition in vivo at 20 mg/kg ([4]; Mus musculus): 97%

CC(=O)Nc1ccc(CN2CCN(CC(=O)c3ccccc3)CC2)cc1 [IV-21, N^1-(4-acetamidobenzyl)-N^4-phenacyl piperazine]
Increase (hot plate) (%) [1]: 100% | responders at 20 mg/kg [1, 7]: 100% | responders at 20 mg/kg [1, 8]: 50% | Sedation (writhing model) [2]: 92 | inhibition in vivo at 20 mg/kg [2]: 92% | Increase (tail flick) (%) [3]: 28% | change in vivo at 20 mg/kg [3]: 28% | After (s) tail flick time [3]: 9.72 s | Writhing (K i) [4]: 100 | inhibition in vivo at 20 mg/kg ([4]; Mus musculus): 100%

COc1cccc(CN2CCN(CC(=O)c3ccccc3)CC2)c1 [IV-25, N^1-(3-methoxybenzyl)-N^4-phenacyl piperazine]
responders at 20 mg/kg [1, 7]: 40% | responders at 20 mg/kg [1, 8]: 10% | inhibition in vivo at 20 mg/kg [2]: 88% | change in vivo at 20 mg/kg [3]: 12% | After (s) tail flick time [3]: 8.37 s | inhibition in vivo at 20 mg/kg ([4]; Mus musculus): 100%

Cc1ccc(C(=O)CN2CCN(C(C)c3ccc([N+](=O)[O-])cc3)CC2)cc1 (stereo not drawn) [IV-27, N^1-[1-(4-nitrophenyl)ethyl]-N^4-(4-methylphenacyl)piperazine]
responders at 20 mg/kg [1, 7]: 20% | responders at 20 mg/kg [1, 8]: 0% | Excitement ([1]; i.p. 20 mg/Kg): no | Sedation ([1]; i.p. 20 mg/Kg, grade symbols, key not given): no | inhibition in vivo at 20 mg/kg [2]: 74% | change in vivo at 20 mg/kg [3]: 9.2% | After (s) tail flick time [3]: 9.37 s | inhibition in vivo at 20 mg/kg ([4]; Mus musculus): 57%

CC(c1ccccc1)N1CCN(CC(=O)c2ccccc2)CC1 (stereo not drawn) [IV-37, N^1-(1-phenylethyl)-N^4-phenacyl piperazine]
responders at 20 mg/kg [1, 7]: 100% | responders at 20 mg/kg [1, 8]: 100% | inhibition in vivo at 20 mg/kg [2]: 90.1% | change in vivo at 20 mg/kg [3]: 25% | After (s) tail flick time [3]: 10.54 s | inhibition in vivo at 20 mg/kg ([4]; Mus musculus): 100%

Cc1ccc(C(=O)CN2CCN(C(C)c3ccccc3)CC2)cc1 (stereo not drawn) [IV-40, N^1-(1-phenylethyl)-N^4-(4-methylphenacyl)piperazine]
responders at 20 mg/kg [1, 7]: 10% | responders at 20 mg/kg [1, 8]: 10% | change in vivo at 20 mg/kg [3]: 8% | After (s) tail flick time [3]: 7.88 s

CC(=O)Nc1ccc(O)cc1 [Paracetamol, reference compound]
ED50 ([1]; Rattus norvegicus, po, read-out: Analgesia ED50): 4320 mg/kg | ED50 ([4]; Mus musculus, po, Mice, Acetic acid Writhing, read-out: Analgesia ED50): 132 mg/kg | ED50 [6]: > 5000 mg/kg
